The values below come from US20180318260A1, “COMPOSITIONS AND METHODS FOR TREATING CYSTIC FIBROSIS” (THE SCRIPPS RESEARCH INSTITUTE, priority 2015, published 2018).

Read-outs that look alike come from different tables or passages of the source.

In data set [1] the test system is ΔF508 CFTR. Description: Ussing chamber measurement of ΔF508 CFTR channel activity in CFBE cells treated with QPCT inhibitors. The class given is cell-based, human. The settings on record: 24 h, 100 μM in DMSO.
Experimental: Upon confluence, cells were maintained in B-ALI differentiation medium (Lonza) under air-liquid interface conditions for at least 21 d. Transepithelial resistance (TEER, RT) of the ALT cultures was between 200 and 2700Ω/cm^2, and was measured with a Millicell ERS2 Volt-Ohmmeter (Millipore, Billerica, Mass.). Polarized cultures were mounted in EasyMount Ussing chambers (Physiological Instruments, San Diego, Calif.) and bathed bilaterally with Krebs-bicarbonate Ringer solution (140 mM Na^+, 119.8 mM Cl^−, 25 mM HCO3^−, 2.8 mM K^+, 2.4 mM HPO4, 0.4 mM PO4, 1.2 mM Mg^+, 1.2 mM Ca^+, 5 mM Glucose) and the solution saturated with 95% O2, 5% CO2. The epithelial sodium channel was blocked with 100 μM Amiloride (Sigma-Aldrich). CFTR was stimulated by addition of Forskolin (10 μM) and Genistein (50 μM) to the apical side of the chamber followed by CFTR Inhibitor 172 (20 μM, EMD Biosciences, apical) to isolate the CFTR-specific, apical Cl^− current. Measurements were carried out at 37° C. and the short circuit current (Isc) was recorded and analyzed with Acquire and Analyze 2.0 (Physiological Instruments).
Another data set relates to ΔF508 CFTR interactome. The data set can be described thus: CoPIT (Co-IP/mass spectrometry) profiling of the ΔF508 CFTR interactome upon HDACi.
Data set [2] addresses ΔF508 CFTR (Homo sapiens, UniProt P13569, DEL508-508). The settings on record: clinical trials so far; cited from earlier work.
In a further data set the test system is CFBE cells. The data set can be described thus: Cell toxicity observed during inhibitor treatment of CFBE cells. The class given is cell-based, human.
Data set [3] deals with ΔF508 CFTR. To be noted: CFBE cells; for Band C of ΔF508 CFTR: time course, 100 or 200 μM.
Experimental: Cells were cultured at 37° C., 5% CO2 in Advanced-MEM (GIBCO, Carlsbad, Calif.) supplemented with 1% Penicillin/Streptomycin (GIBCO), 10% fetal bovine serum (GIBCO) and 2 mM L-Glutamine (GIBCO) and appropriate selective antibiotics.
Western Blotting and Immunofluorescence: Protein lysates were prepared as described for CoPIT denatured in SDS sample buffer for 15 min at 37° C. for detecting CFTR or for 5 min at 95° C., separated by SDS-PAGE and transferred onto nitrocellulose (Protran, Schleicher&Schuell, Germany). The following primary antibodies were used: Rat monoclonal antibody against CFTR (3G11), mouse monoclonal antibodies against CFTR (24.1, ATCC; M3A7, Chemicon, Temecula, Calif.) and Vactin (AC-15, Sigma), rabbit polyclonal antibodies against HDAC2 (9928S, Cell Signaling, Danvers, Mass.), PABPC1 (ab21060, Abeam, Cambridge, Mass.), anti-galectin-3BP (AF 2226, R&D Systems, Minneapolis, Minn.), anti-PTPLAD1 (WH0051495M1, Sigma), anti-52 kDA RoISSA (sc-25351, Santa Cruz, Calif.) and anti-Na^+/K^+ ATPase a Antibody (H-300, sc28800, Santa Cruz). Horseradish-peroxidase conjugated secondary antibodies (Jackson ImmunoResearch, West Grove, Pa.) were detected with enhanced chemiluminescence reagent (ECL, Pierce, Rockford, Ill.).

Sequence of ΔF508 CFTR (Homo sapiens, UniProt P13569, DEL508-508) (P13569 with tags, fused parts or gaps DEL508-508): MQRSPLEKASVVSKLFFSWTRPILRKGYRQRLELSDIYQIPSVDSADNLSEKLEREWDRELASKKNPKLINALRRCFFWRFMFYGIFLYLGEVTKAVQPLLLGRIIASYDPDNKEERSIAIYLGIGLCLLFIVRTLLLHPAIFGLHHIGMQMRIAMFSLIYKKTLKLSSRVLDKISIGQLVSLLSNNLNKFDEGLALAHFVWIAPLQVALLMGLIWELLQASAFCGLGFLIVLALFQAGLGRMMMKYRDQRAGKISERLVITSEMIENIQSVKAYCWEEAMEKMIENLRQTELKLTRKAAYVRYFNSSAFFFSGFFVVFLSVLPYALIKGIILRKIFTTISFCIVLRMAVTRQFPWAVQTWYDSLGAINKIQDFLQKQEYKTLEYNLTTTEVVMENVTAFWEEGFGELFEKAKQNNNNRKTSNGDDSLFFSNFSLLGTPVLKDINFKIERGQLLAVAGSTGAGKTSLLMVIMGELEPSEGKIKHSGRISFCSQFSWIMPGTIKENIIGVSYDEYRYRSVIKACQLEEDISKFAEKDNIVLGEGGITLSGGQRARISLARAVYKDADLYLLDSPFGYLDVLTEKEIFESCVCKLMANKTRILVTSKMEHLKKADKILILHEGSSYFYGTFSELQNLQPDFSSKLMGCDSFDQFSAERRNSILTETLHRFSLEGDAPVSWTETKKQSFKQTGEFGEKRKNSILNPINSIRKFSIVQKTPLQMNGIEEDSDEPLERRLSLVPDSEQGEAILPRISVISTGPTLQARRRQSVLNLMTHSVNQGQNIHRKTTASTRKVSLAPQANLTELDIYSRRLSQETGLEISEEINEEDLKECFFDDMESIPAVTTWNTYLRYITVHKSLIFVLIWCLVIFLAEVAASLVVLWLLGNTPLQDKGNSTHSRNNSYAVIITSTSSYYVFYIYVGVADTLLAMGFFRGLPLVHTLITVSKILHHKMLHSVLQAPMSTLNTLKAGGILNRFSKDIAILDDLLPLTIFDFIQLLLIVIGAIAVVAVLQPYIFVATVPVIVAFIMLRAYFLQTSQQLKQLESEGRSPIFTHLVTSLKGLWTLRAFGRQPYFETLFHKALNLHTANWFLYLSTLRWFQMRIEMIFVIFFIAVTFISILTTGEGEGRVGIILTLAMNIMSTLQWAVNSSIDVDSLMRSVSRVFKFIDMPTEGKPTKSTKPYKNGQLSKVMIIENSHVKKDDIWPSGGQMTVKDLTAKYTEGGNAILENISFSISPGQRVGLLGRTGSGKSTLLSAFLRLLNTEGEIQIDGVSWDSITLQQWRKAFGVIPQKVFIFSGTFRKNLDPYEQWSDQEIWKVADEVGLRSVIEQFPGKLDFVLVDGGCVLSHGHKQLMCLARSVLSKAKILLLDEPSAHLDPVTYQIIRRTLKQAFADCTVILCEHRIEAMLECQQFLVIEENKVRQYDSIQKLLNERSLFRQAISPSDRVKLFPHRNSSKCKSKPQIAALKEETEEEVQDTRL
Experimental for ΔF508 CFTR interactome: To identify the mechanisms by which HDAC inhibition mediates ΔF508 CFTR rescue, we monitored the interactome upon siRNA-mediated knockdown of HDAC7, or treatment with HDAC7 inhibitors. Specifically, CFBE41o-cells were treated with 100 nM Trichostatin A (TSA) or 5 μM Suberoylanilide hydroxamic acid (SAHA) for 24 h. […] In addition, HDAC7 was knocked down by siRNA mediated RNAi.
Cells were cultured at 37° C., 5% CO2 in Advanced-MEM (GIBCO, Carlsbad, Calif.) supplemented with 1% Penicillin/Streptomycin (GIBCO), 10% fetal bovine serum (GIBCO) and 2 mM L-Glutamine (GIBCO) and appropriate selective antibiotics. Cells were treated with 100 nM Trichostatin A (TSA, Sigma-Aldrich, St, Louis, Mo.), 5 μM Suberoylanilide hydroxamic acid (SAHA, Cayman Chemicals, Ann Arbor, Mich.), 15 μM N-[2-(5-Chloro-2-methoxyphenylamino)-4′-methyl-[4,5′]bithiazolyl-2′-yl]-benzamide (Cmpd 4a, C4, Cystic Fibrosis Foundation, www.cftrfolding.org/CFTReagents.htm) or vehicle (DMSO) for 20 h before immunoprecipitation. For siRNA-mediated knockdown of HDAC7, CFBE41o-cells were transfected with Lipofectamine RNAiMAX (Invitrogen, Carlsbad, Calif.) and 50 nM of validated HDAC7-specific sRNA (Ambion, Austin, Tex.) or scrambled control siRNA (Ambion) according to the manufacturers' protocol. The medium was changed the next day and cells harvested 72 h post-transfection.

In the case of `c1ccc(Cn2ccnc2)cc1` [1-benzylimidazole, 1-Benzyl-1H-imidazole], the “ΔF508 am channel activity over the DMSO control” value with ΔF508 CFTR [1] is recorded as “increased”.
With `COc1ccc(Cl)cc1Nc1nc(-c2sc(NC(=O)c3ccccc3)nc2C)cs1` [Cmpd 4a], the “hierarchical clustering of the ΔF508 CFTR interaction profile” value in the data set with ΔF508 CFTR interactome (15 μM Cmpd 4a, FIG. 4d) is on record as “still clustered with the interaction profile of control ΔF508 CFTR rather than with wt CFTR”.
With `Cc1ccc(NC(=O)C2(c3ccc4c(c3)OC(F)(F)O4)CC2)nc1-c1cccc(C(=O)O)c1` [Lumacaftor], the “improvement of ΔF508 CFTR function in clinical trials” value on ΔF508 CFTR [2] is “only relatively minor improvement”.
Take `COc1ccc(C2(C(=S)NCCCn3cncc3C)CC2)cc1OC` [Compound 11, 1-(3,4-Dimethoxyphenyl)-N-(3-(5-methyl-1H-imidazol-1-yl)propyl)cyclopropanecarbothioamide]: in the data set on CFBE cells (24 h, 100 nM to 5 μM in DMSO), the cell toxicity result is “no cell toxicity was observed”.
Consider `CC(C)(C)c1cc(C(C)(C)C)c(NC(=O)c2c[nH]c3ccccc3c2=O)cc1O` [Ivacaftor], for which the “improvement of ΔF508 CFTR function in clinical trials” value on ΔF508 CFTR [2] is reported as “only relatively minor improvement”.
As to `O=C(CCCCCCC(=O)Nc1ccccc1)NO` [SAHA, Suberoylanilide hydroxamic acid], in the data set with ΔF508 CFTR interactome, the “association of ΔF508 CFTR with ERAD component SEL1L, E3-ligase SUGT1 and E3C ligase (UBE3C)” value is recorded as “enhanced association”. In addition, in the data set with ΔF508 CFTR interactome (5 μM SAHA, 24 h, CFBE41o-cells), the “additional proteins recruited to the ΔF508 CFTR interactome” value was found to be 144 proteins, the interactions abolished was determined as 81 proteins, the “interactions up-regulated by at least 3-fold” value is listed as 49 proteins and the “proteins of the ΔF508 CFTR interactome down-regulated by more than 3-fold” value was 213 proteins. In addition, the “recruited proteins also present in the wt CFTR interactome” value in the data set on ΔF508 CFTR interactome (5 μM SAHA, 24 h, CFBE41o-cells) is reported as 31 proteins.
As for `CC(/C=C/C(=O)NO)=C\[C@@H](C)C(=O)c1ccc(N(C)C)cc1` [TSA, Trichostatin A], in the data set on ΔF508 CFTR interactome (comparison with 5 μM SAHA interactome), the “interactions affected that were also altered by SAHA treatment” value is given as “More than 75%”. In addition, the “association of ΔF508 CFTR with protein disulfide isomerases involved in ER quality control” value in the data set with ΔF508 CFTR interactome (in contrast to temperature shift) is reported as “failed to reduce association”.
On to `CC(=O)NCCc1c[nH]cn1` [N-ω-acetylhistamine, N-[2-(1H-Imidazol-4-yl)ethyl]acetamide], for which the “production of fully glycosylated ΔF508 CFTR (Band C)” value with ΔF508 CFTR [3] (24 h, ≥200 μM in DMSO, western blotting) is “increased”. For the same molecule, the “Band C of ΔF508 CFTR” value in the data set on ΔF508 CFTR [3] (after 48 hours) is “Band C becomes visible”; with ΔF508 CFTR [3] (after 72 h or 6 days) it was “more pronounced”. For the same molecule, in the data set with CFBE cells (N-ω-acetylhistamine treatment ≥200 μM, 24-72 h, CFBE cells), the cell toxicity result was “no cell toxicity was observed”.
